Results as given in paper PMC6176987, “Correction of cognitive deficits in mouse models of Down syndrome by a pharmacological inhibitor of DYRK1A” (Disease Models & Mechanisms, 2018).

Columns and labels:
wt mice = experiment: Novel object recognition (NOR) test in wt mice; type: in vivo, mouse; details: 20 mg/kg daily i.p., 5, 12 or 19 days
Method: (§1) Behavioural studies were conducted in 12- to 20-week-old male animals. All assessments were scored blind to genotype and treatment, as recommended by the ARRIVE guidelines ([Karp et al., 2015]; [Kilkenny et al., 2010]). […] The final formulation was prepared just prior to use as a 2 mg/ml solution diluted in PEG300/water (50/45), to reach a final DMSO/PEG300/water 5/50/45 (v/v/v) mix. Treated animals received a daily dose (5, 12 or 19 days) of this formulation by i.p. injection of 20 mg/kg/day. Nontreated animals received the same formulation without L41.
(§2) The NOR task is based on the innate tendency of rodents to differentially explore a novel object over a familiar one ([Ennaceur and Delacour, 1988]). Day 1 was a habituation session. Mice freely explored the apparatus, a white circular arena (53 cm diameter) placed in a dimly lit testing room (40 lux). On day 2, the acquisition phase, mice were free to explore two identical objects for 10 min. Mice were then returned to their home cage for a 24 h retention interval. […] Object exploration was manually scored and defined as the orientation of the nose to the object at a distance <1 cm. For the retention phase, the percent of time spent exploring familiar versus novel objects was calculated to assess memory performance.

DYRK1A [1] = molecular target: T1, DYRK1A (Mus musculus, UniProt Q61214); experiment: Brain DYRK1A catalytic activity after treatment, Ts65Dn mice; type: in vivo; details: 19 days daily i.p., normalized to GSK-3α/β activity
T1 construct: DYRK1A was purified from brain extracts by immunoprecipitation; from tissue; host or cells: mouse brain (wt, Tg(Dyrk1a), Ts65Dn)
Method: Protein kinase assays to measure the catalytic activity of DYRK1A in the brains of the animals treated with or without drugs were performed as follows: frozen half brains were homogenized in lysis buffer (1.2 ml/half brain) using Precellys® homogenizer tubes. After centrifugation at 2800 g for 2×15 s, 1 mg brain extract was incubated with 2 µg DYRK1A (H00001859 M01, Interchim) or GSK3-β (MBS8508391, Emelca Bioscience, France) antibodies at 4°C for 1 h under gentle rotation. Then, 20 µl protein G agarose beads (Thermo Fisher Scientific, France), previously washed three times with bead buffer (50 mM Tris pH 7.4, 5 mM NaF, 250 mM NaCl, 5 mM EDTA, 5 mM EGTA, 0.1% Nonidet P-40 and protease inhibitor cocktail from Roche, France), were added to the mix and gently rotated at 4°C for 30 min. After a 1 min spin at 10,000 g and removal of the supernatant, the pelleted immune complexes were washed three times with bead buffer, and a last time with Buffer C (60 mM β-glycerophosphate, 30 mM p-nitrophenolphosphate, 25 mM Mops pH 7.2, 5 mM EGTA, 15 mM MgCl2, 2 mM dithiothreitol, 0.1 mM sodium orthovanadate, 1 mM phenylphosphate, protease inhibitor cocktail). DYRK1A or GSK-3 immobilized on beads were assayed in buffer C as described in the Supplementary Materials and Methods with Woodtide ([…]) (1.5 µg/assay) or GSK3-tide ([…]pSED-EEE, where pS stands for phosphorylated serine) as substrates.

CK2 = molecular target: T2, CK2 (Homo sapiens, UniProt P68400); experiment: Recombinant protein kinase assay, CK2; type: biochemical; details: 15 µM ATP
T2 construct: Cochet
T2 sequence (P68400 whole entry): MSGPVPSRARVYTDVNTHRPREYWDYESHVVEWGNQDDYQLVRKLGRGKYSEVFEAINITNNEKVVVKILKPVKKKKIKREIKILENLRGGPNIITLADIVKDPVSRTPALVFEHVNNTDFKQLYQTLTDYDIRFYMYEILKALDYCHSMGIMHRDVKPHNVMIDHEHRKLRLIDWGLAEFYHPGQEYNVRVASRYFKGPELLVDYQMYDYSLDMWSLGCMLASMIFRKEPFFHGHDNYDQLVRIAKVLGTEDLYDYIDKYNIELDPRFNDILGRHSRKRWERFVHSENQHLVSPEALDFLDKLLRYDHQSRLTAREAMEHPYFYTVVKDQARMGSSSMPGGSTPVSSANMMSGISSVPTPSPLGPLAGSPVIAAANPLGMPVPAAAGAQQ

Ts65Dn mice = experiment: Novel object recognition (NOR) test in Ts65Dn mice; type: in vivo, mouse; details: daily i.p. treatment for 19 days
Method: as §1, §2

Dp1Yey mice = experiment: Novel object recognition (NOR) test in Dp1Yey mice; type: in vivo, mouse; details: daily i.p. treatment for 19 days
Method: as §1, §2

CLK2 = CLK2 (Mus musculus, UniProt O35491); experiment: Recombinant protein kinase assay, CLK2; type: biochemical
Chain of CLK2 (O35491 whole entry): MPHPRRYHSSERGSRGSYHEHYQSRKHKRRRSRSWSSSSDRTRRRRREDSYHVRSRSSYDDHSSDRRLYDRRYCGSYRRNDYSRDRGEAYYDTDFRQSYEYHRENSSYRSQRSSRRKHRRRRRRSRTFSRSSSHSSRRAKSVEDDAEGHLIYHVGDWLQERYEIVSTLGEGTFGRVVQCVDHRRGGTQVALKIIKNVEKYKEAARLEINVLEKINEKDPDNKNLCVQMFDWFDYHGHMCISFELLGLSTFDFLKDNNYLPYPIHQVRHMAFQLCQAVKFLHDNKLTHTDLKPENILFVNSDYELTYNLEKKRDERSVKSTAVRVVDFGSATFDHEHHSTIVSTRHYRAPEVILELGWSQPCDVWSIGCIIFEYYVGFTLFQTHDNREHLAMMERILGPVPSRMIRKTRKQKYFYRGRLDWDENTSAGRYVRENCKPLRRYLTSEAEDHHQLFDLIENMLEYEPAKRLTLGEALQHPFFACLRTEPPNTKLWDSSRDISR

DYRK1A [2] = molecular target: T1, DYRK1A; experiment: In vitro kinase activity of DYRK1A immunopurified from mouse brains; type: biochemical; details: DYRK1A from untreated wt, Tg(Dyrk1a) and Ts65Dn brains, increasing concentrations

Q: What does the source list for `O=C1NC(Nc2ccccc2)=N/C1=C\c1ccc2c(c1)OCO2` [L41]?
A: Effect on NOR performance of wt animals (wt mice): no effect; Reduction of brain DYRK1A activity (DYRK1A [1]): ~30%; IC50 (CK2): 510 nM; NOR test outcome (Ts65Dn mice): rescue; NOR test outcome (Dp1Yey mice): rescue; IC50 (CLK2): 130 nM; In vitro inhibition of brain DYRK1A (DYRK1A [2]): almost fully inhibited
